Assay results as given in patent US7411067B2, “Crystalline forms of gatifloxacin” (Teva Pharmaceutical Industries Ltd, priority 2002, dated 2008).

Tests used:
[1] = Exposure of powder as a thin layer in a controlled humidity cell; resulting crystalline form by x-ray diffraction; type: physicochemical; conditions: 200 mg powder as thin layer
Method: As used herein in connection with the present invention, x-ray diffraction refers to x-ray diffraction by the powder diffraction technique. X-ray powder diffraction analysis was performed using a Scintag powder diffractometer with variable goniometer, a Cu source, and a solid state detector. A standard round aluminum sample holder with zero background quartz plate was used. Samples were scanned from 2° to 40° 2θ at 3° per minute in the continuous scan mode. Reflections are reported as peak maxima in the intensity vs. 2θ plots, and are subject to the normal experimental error (uncertainty). Samples were promptly analyzed “as is”.
In another embodiment, the present invention provides a method of making a mixture of novel crystalline form O and prior-art sesqihydrate. The ratios will depend, inter alia, on the conditions of treatment. The mixtures can be made by exposing prior art forms omega or TE, or crystalline form C (characterized by x-ray reflections at 7.2°, 10.8°, 15.8°, 21.8°, and 26.2°±0.2° 2θ) to an atmosphere having a relative humidity of at least about 60% (form c), or at least about 80% (form TE and omega) for an exposing time. The exposing time will generally be between about 24 hours and two weeks.
Preferably, the form omega, TE, or C is exposed as a thin layer of particles or crystals to facilitate diffusion of gasses and vapors. Preferably, the exposing is at ambient temperature.
The present invention can be further illustrated with the following non-limiting examples. In the following examples, the polymorphic or pseudopolymorphic form of gatifloxacin was determined by x-ray diffraction.
Gatifloxacin in form Ω (200 mg powder) was spread as a thin layer in a container having short vertical walls. The container was placed in a controlled humidity cell at 100% RH for 1 week.

[2] = among the crystalline forms, per WO 02/22126 A1; cited from earlier work
[3] = room temperature, among the crystalline forms, per WO 02/22126 A1; cited from earlier work
[4] = reported in U.S. Pat. No. 5,880,283; cited from earlier work
[5] = reported in U.S. Pat. No. 5,880,283; cited from earlier work; remark: listed apart in the source

Row | Compound | crystalline form found after humidity exposure ([1]; 80% RH, two weeks) | crystalline form found after humidity exposure ([1]; 100% RH, two weeks) | hygroscopicity [4] | further results
1 | COc1c(N2CCNC(C)C2)c(F)cc2c(=O)c(C(=O)O)cn(C3CC3)c12 (stereo not drawn) [form TE, gatifloxacin] | approximately equal weight mixture (1:1) of form O and sesquihydrate | approximately equal weight (1:1) mixture of form O and sesquihydrate |  | 
2 | COc1c(N2CCNC(C)C2)c(F)cc2c(=O)c(C(=O)O)cn(C3CC3)c12 (stereo not drawn) [pentahydrate, gatifloxacin] |  |  |  | thermodynamic stability [2]: most thermodynamically stable form; aqueous solubility [3]: lowest
3 | COc1c(N2CCNC(C)C2)c(F)cc2c(=O)c(C(=O)O)cn(C3CC3)c12 (stereo not drawn) [form C, gatifloxacin] | approximately 30:70 mixture by weight of form O and sesquihydrate | mixture of form O and sesquihydrate |  | crystalline form found after humidity exposure ([1]; 60% RH, two weeks): approximately 80:20 mixture by weight of form C and form O
4 | COc1c(N2CCNC(C)C2)c(F)cc2c(=O)c(C(=O)O)cn(C3CC3)c12 (stereo not drawn) [form Ω, gatifloxacin] |  |  |  | crystalline form found after humidity exposure ([1]; 80% RH, 1 week): approximately equal weight (1:1) mixture of form O and form Ω; crystalline form found after humidity exposure ([1]; 100% RH, 1 week): approximately equal weight (1:1) mixture of form O and sesquihydrate
5 | COc1c(N2CCNC(C)C2)c(F)cc2c(=O)c(C(=O)O)cn(C3CC3)c12 (stereo not drawn) [hemihydrate, gatifloxacin] |  |  | hygroscopic | 
6 | COc1c(N2CCNC(C)C2)c(F)cc2c(=O)c(C(=O)O)cn(C3CC3)c12 (stereo not drawn) [sesquihydrate, gatifloxacin] |  |  | less hygroscopic | stability in manufacturing [5]: more stable
